Values of other authors as cited in PubChem BioAssay AID1259409 (Chemical Carcinogenesis Research Information System (CCRIS), 2018).
“And” between values parts separate entries of the source, which are not always exact repeats. Identical values can stand only once.

Tested on: rodent chemically induced tumor inhibition, incidence and multiplicity
Assay: CCRIS tumor inhibitor studies

| SMILES | tumour outcome (control, treated, inhibition, significance) (Carcinogen: 1,2-DIMETHYLHYDRAZINE, 540-73-8, Dose [Inhibitor]: 0, 0.2, 5 PPM IN DIET BEGINNING 1 D PRIOR TO CARCINOGEN TREATMENT AND CONTINUING FOR DURATION OF STUDY (STUDY DURATION:, Dose [Inhibitor]: 0, 0.2, 5 PPM IN DIET BEGINNING 1 D PRIOR TO CARCINOGEN TREATMENT AND CONTINUING FOR DURATION OF STUDY (STUDY DURATION:, Route [Inhibitor]: ORAL, Species: RAT, Strain/Sex: SPRAGUE-DAWLEY/MALE, Target Tissue: Type of Lesion: DISTAL COLON: ADENOCARCINOMA, Dose [Carcinogen]: 20 MG/KG 1/WK FOR 20 WK, Promoter: NONE USED) | tumour outcome (control, treated, inhibition, significance) (Carcinogen: 3,2'-DIMETHYL-4-AMINOBIPHENYL, 13394-86-0, Dose [Inhibitor]: 0, 2 PPM IN BASAL DIET BEGINNING POST CARCINOGEN TREATMENT AND CONTINUING FOR 40 WK (STUDY DURATION: 60 WK), Route [Inhibitor]: ORAL, Species: RAT, Strain/Sex: F344/MALE, Target Tissue: Type of Lesion: LARGE INTESTINE: ADENOMA AND CARCINOMA, Dose [Carcinogen]: 50 MG/KG 1/2 WK FOR 20 WK TO RATS MAINTAINED ON ETHINYL ESTRADIOL CONTAINING DIET (0.75 PPM) FOR 1 WK CYCLED WITH ETHINY, Promoter: ETHINYL ESTRADIOL, 57-63-6) | tumour outcome (control, treated, inhibition, significance) (Carcinogen: 3,2'-DIMETHYL-4-AMINOBIPHENYL, 13394-86-0, Dose [Inhibitor]: 0, 2 PPM IN BASAL DIET BEGINNING POST CARCINOGEN TREATMENT AND CONTINUING FOR 40 WK (STUDY DURATION: 60 WK), Route [Inhibitor]: ORAL, Species: RAT, Strain/Sex: F344/MALE, Target Tissue: Type of Lesion: PANCREAS: ACINAR CELL NODULE, Dose [Carcinogen]: 50 MG/KG 1/2 WK FOR 20 WK TO RATS MAINTAINED ON ETHINYL ESTRADIOL CONTAINING DIET (0.75 PPM) FOR 1 WK CYCLED WITH ETHINY, Promoter: ETHINYL ESTRADIOL, 57-63-6) | tumour outcome (control, treated, inhibition, significance) (Carcinogen: 3,2'-DIMETHYL-4-AMINOBIPHENYL, 13394-86-0, Dose [Inhibitor]: 0, 2 PPM IN BASAL DIET BEGINNING POST CARCINOGEN TREATMENT AND CONTINUING FOR 40 WK (STUDY DURATION: 60 WK), Route [Inhibitor]: ORAL, Species: RAT, Strain/Sex: F344/MALE, Target Tissue: Type of Lesion: PREPUTIAL GLAND: ADENOMA AND CARCINOMA, Dose [Carcinogen]: 50 MG/KG 1/2 WK FOR 20 WK TO RATS MAINTAINED ON ETHINYL ESTRADIOL CONTAINING DIET (0.75 PPM) FOR 1 WK CYCLED WITH ETHINY, Promoter: ETHINYL ESTRADIOL, 57-63-6) | tumour outcome (control, treated, inhibition, significance) (Carcinogen: 3,2'-DIMETHYL-4-AMINOBIPHENYL, 13394-86-0, Dose [Inhibitor]: 0, 2 PPM IN BASAL DIET BEGINNING POST CARCINOGEN TREATMENT AND CONTINUING FOR 40 WK (STUDY DURATION: 60 WK), Route [Inhibitor]: ORAL, Species: RAT, Strain/Sex: F344/MALE, Target Tissue: Type of Lesion: SMALL INTESTINE: ADENOMA AND ADENOCARCINOMA, Dose [Carcinogen]: 50 MG/KG 1/2 WK FOR 20 WK TO RATS MAINTAINED ON ETHINYL ESTRADIOL CONTAINING DIET (0.75 PPM) FOR 1 WK CYCLED WITH ETHINY, Promoter: ETHINYL ESTRADIOL, 57-63-6) | tumour outcome (control, treated, inhibition, significance) (Carcinogen: 3,2'-DIMETHYL-4-AMINOBIPHENYL, 13394-86-0, Dose [Inhibitor]: 0, 2 PPM IN BASAL DIET BEGINNING POST CARCINOGEN TREATMENT AND CONTINUING FOR 40 WK (STUDY DURATION: 60 WK), Route [Inhibitor]: ORAL, Species: RAT, Strain/Sex: F344/MALE, Target Tissue: Type of Lesion: SUBCUTIS: TUMOR, Dose [Carcinogen]: 50 MG/KG 1/2 WK FOR 20 WK TO RATS MAINTAINED ON ETHINYL ESTRADIOL CONTAINING DIET (0.75 PPM) FOR 1 WK CYCLED WITH ETHINY, Promoter: ETHINYL ESTRADIOL, 57-63-6) | tumour outcome (control, treated, inhibition, significance) (Carcinogen: 3,2'-DIMETHYL-4-AMINOBIPHENYL, 13394-86-0, Dose [Inhibitor]: 0, 2 PPM IN BASAL DIET BEGINNING POST CARCINOGEN TREATMENT AND CONTINUING FOR 40 WK (STUDY DURATION: 60 WK), Route [Inhibitor]: ORAL, Species: RAT, Strain/Sex: F344/MALE, Target Tissue: Type of Lesion: ZYMBAL GLAND: ADENOMA AND CARCINOMA, Dose [Carcinogen]: 50 MG/KG 1/2 WK FOR 20 WK TO RATS MAINTAINED ON ETHINYL ESTRADIOL CONTAINING DIET (0.75 PPM) FOR 1 WK CYCLED WITH ETHINY, Promoter: ETHINYL ESTRADIOL, 57-63-6) | tumour outcome (control, treated, inhibition, significance) (Carcinogen: 3,2-DIMETHYL-4-AMINOBIPHENYL, 13394-86-0, Dose [Inhibitor]: 0, 2 PPM IN BASAL DIET BEGINNING POST CARCINOGEN TREATMENT AND CONTINUING FOR 40 WK (STUDY DURATION: 60 WK), Route [Inhibitor]: ORAL, Species: RAT, Strain/Sex: F344/MALE, Target Tissue: Type of Lesion: PROSTATE: CARCINOMA, Dose [Carcinogen]: 50 MG/KG 1/2 WK FOR 20 WK TO RATS MAINTAINED ON ETHINYL ESTRADIOL CONTAINING DIET (0.75 PPM) FOR 1 WK CYCLED WITH ETHINY, Promoter: ETHINYL ESTRADIOL, 57-63-6) | tumour outcome (control, treated, inhibition, significance) (Carcinogen: DINITROSOPIPERAZINE, 140-79-4, Dose [Inhibitor]: 0, 2 UG/G DIET IN YEAST CONCURRENTLY WITH CARCINOGEN AND CONTINUED FOR STUDY DURATION (STUDY DURATION: 13.5 MO), Route [Inhibitor]: ORAL, Species: RAT, Strain/Sex: CD-1/MALE, FEMALE, Target Tissue: Type of Lesion: NASAL PHARYNX: CARCINOMA, Dose [Carcinogen]: 1.5 MG IN WATER 2/WK FOR 5 WK FOLLOWED BY 3 MG IN WATER 2/WK FOR 17.5 WK (TOTAL DOSE: 120 MG)) | tumour outcome (control, treated, inhibition, significance) (Carcinogen: NONE USED, Dose [Inhibitor]: 0.5 PPM IN DRINKING WATER DAILY FOR DURATION OF STUDY (STUDY DURATION: 2 YR), Route [Inhibitor]: ORAL, Species: MOUSE, Strain/Sex: C3H/FEMALE, Target Tissue: Type of Lesion: MAMMARY GLAND: ADENOCARCINOMA, Promoter: NONE USED) | tumour outcome (control, treated, inhibition, significance) (Carcinogen: NONE USED, Dose [Inhibitor]: 2 PPM IN A 10% BUTTER DIET DAILY FOR DURATION OF STUDY (STUDY DURATION: 2 YR), Route [Inhibitor]: ORAL, Species: MOUSE, Strain/Sex: C3H/FEMALE, Target Tissue: Type of Lesion: MAMMARY GLAND: ADENOCARCINOMA, Promoter: NONE USED) | tumour outcome (control, treated, inhibition, significance) (Carcinogen: NONE USED, Dose [Inhibitor]: 2 PPM IN A 10% CORN OIL DIET DAILY FOR DURATION OF STUDY (STUDY DURATION: 2 Y R), Route [Inhibitor]: ORAL, Species: MOUSE, Strain/Sex: C3H/FEMALE, Target Tissue: Type of Lesion: MAMMARY GLAND: ADENOCARCINOMA, Promoter: NONE USED) | tumour outcome (control, treated, inhibition, significance) (Carcinogen: NONE USED, Dose [Inhibitor]: 2 PPM IN A 10% LARD DIET DAILY FOR DURATION OF STUDY (STUDY DURATION: 2 YR), Route [Inhibitor]: ORAL, Species: MOUSE, Strain/Sex: C3H/FEMALE, Target Tissue: Type of Lesion: MAMMARY GLAND: ADENOCARCINOMA, Promoter: NONE USED) | tumour outcome (control, treated, inhibition, significance) (Carcinogen: NONE USED, Dose [Inhibitor]: 2 PPM IN A 10% RAPE SEED OIL DIET DAILY FOR DURATION OF STUDY (STUDY DURATION : 2 YR), Route [Inhibitor]: ORAL, Species: MOUSE, Strain/Sex: C3H/FEMALE, Target Tissue: Type of Lesion: MAMMARY GLAND: ADENOCARCINOMA, Promoter: NONE USED) | tumour outcome (control, treated, inhibition, significance) (Carcinogen: NONE USED, Dose [Inhibitor]: 2 PPM IN DRINKING WATER DAILY FOR DURATION OF STUDY (STUDY DURATION: 2 YR), Route [Inhibitor]: ORAL, Species: MOUSE, Strain/Sex: C3H/FEMALE, Target Tissue: Type of Lesion: MAMMARY GLAND: ADENOCARCINOMA, Promoter: NONE USED) | tumour outcome (control, treated, inhibition, significance) (Carcinogen: 7,12-DIMETHYLBENZ[A]ANTHRACENE [57-97-6], Dose [Inhibitor]: 0, 0.1% IN 0.2 ML DMSO-ACETONE (15:85, V/V) 2X/WK FOR 30 WK 10 MIN PRIOR TO PROMOTER DOSE (STUDY DURATION: 31 WK), Route [Inhibitor]: DERMAL, Species: MOUSE, Strain/Sex: ICR/FEMALE, Target Tissue: Type of Lesion: SKIN: PAPILLOMA, Dose [Carcinogen]: 0.2 UMOL ONCE (STUDY DURATION: 31 WK), Promoter: 12-O-TETRADECANOYLPHORBOL-13-ACETATE [16561-29-8]) |
| --- | --- | --- | --- | --- | --- | --- | --- | --- | --- | --- | --- | --- | --- | --- | --- | --- |
| [Se] | 94%, 81%, 14%, not significant | 3/10 (30%), 0/11 (0%), 100%, not significant | 4/10 (40%), 4/11 (36%), 10%, not significant | 5/10 (50%), 6/11 (55%), -10%, not significant | 2/10 (20%), 2/11 (18%), 10%, not significant | 1/10 (10%), 0/11 (0%), 100%, not significant | 2/10 (20%), 2/11 (18%), 10%, not significant | 5/10 (50%), 4/11 (36%), 28%, not significant | 5/31(16%), 1/22(5%), 69%, p 0.025 | 64%, 25%, 61%, p<0.01 | 65%, 72%, -11%, not significant | 70%, 72%, -3%, not significant | 53%, 52%, 2%, not significant | 63%, 65%, -3%, not significant | 44%, 40%, 9%, not calculated and 64%, 25%, 61%, p<0.01 | – |
| O=C(O)c1ccc(-c2c3nc(c(-c4ccc(C(=O)O)cc4)c4ccc([nH]4)c(-c4ccc(C(=O)O)cc4)c4ccc([nH]4)c(-c4ccc(C(=O)O)cc4)c4nc2C=C4)C=C3)cc1 | – | – | – | – | – | – | – | – | – | – | – | – | – | – | – | 100%, 73%, 27%, not calculated |
